Measured values as given in patent US20240254072A1, “DERIVATIVES OF CANNABIDIOL-C4 FOR THE TREATMENT OF EPILEPSY” (priority 2021, published 2024).
Where “and” joins values, the source holds several entries; their conditions need not be identical. Identical values can stand only once. Like-named read-outs stand apart in the source and are kept apart here.

How the values were obtained:
[1] = system: Maximal Electroshock generalised seizures; conditions: data of EP3160457 / WO 2020/104796; cited from earlier work
[2] = range of toxicology screens, WO 2020/104796; cited from earlier work
inflammation = conditions: WO 01/95899; cited from earlier work
[3] = system: pentylenetetrazole-induced generalised seizures; conditions: data of EP3160457; cited from earlier work
[4] = system: tonic hind limb extensor convulsions induced by electroshock (generalised seizure); assay: mini-MEST (maximal electroshock seizure threshold) test in the mouse; conditions: for CC50 +/- SEM (current producing tonic hind limb extension in 50% of animals) / % change from vehicle (CC50): mouse, i.p., 30 min post dose, diazepam 2.5 mg/kg, Compound I 100 mg/kg, Compound II 150 mg/kg; for CC50 +/- SEM (current producing tonic hind limb extension in 50% of animals): N=6
Procedure: The maximal electroshock seizure threshold (MEST) test is widely utilized preclinically to evaluate pro- or anti-convulsant properties of test compounds (Loscher et al., 1991).
In the MEST test the ability of a drug to alter the seizure threshold current required to induce hind limb tonic extensor convulsions is measured according to an “up and down” method of shock titration (Kimball et al., 1957). An increase in seizure threshold is indicative of anti-convulsant effect.
The ability of a test compound to alter the stimulus intensity, expressed as current (mA), required to induce the presence of tonic hind limb extensor convulsions, is assessed in the MEST.
Naïve mice were acclimatised to the procedure room in their home cages for up to 7 days, with food and water available ad libitum.
All animals were weighed at the beginning of the study and randomly assigned to treatment groups based on a mean distribution of body weight across groups.
The first animal within a treatment group was given a shock at the expected or estimated CC50 current. For subsequent animals, the current was lowered or raised depending on the convulsions outcome from the preceding animal in log scale intervals.
Data generated from each treatment group were used to calculate the CC50±SEM values for the treatment group.
Vehicle: (5% ethanol, 10% solutol in 85% Saline) was prepared as follows: 1 mL of ethanol, 2 mL of solutol were warmed to 60° ° C., in 17 mL of saline (1:2:17).
The test compounds, described herein as Compound I and Compound II, are as shown as Formula I and Formula II respectively. Test compounds were administered at 100 mg/kg (i.p.) for Compound I and 150 mg/kg (i.p.) for Compound II in a 1:2:17 ethanol:solutol:0.9% saline formulation.
The data for each treatment group were recorded as the number of +'s and 0's at each current level employed and this information is then used to calculate the CC50 value (current required for 50% of the animals to show seizure behaviour)±standard error.
Test compound effects were also calculated as percentage change in CC50 from the vehicle control group.
Significant difference between drug-treated animals and controls were assessed according to Litchfield and Wilcoxon (1949).

[5] = Bioanalysis of plasma and brain concentrations by UPLC-MS/MS; assay type: in vivo, mice; conditions: mouse, i.p., 30 min post-dose, Compound I 100 mg/kg, Compound II 150 mg/kg; for Brain concentration / Brain concentration at 30 min: Location Brain; for Plasma Conc. (individual animal) / concentration at 30 min: Location Plasma; for Brain concentration at 30 min / concentration at 30 min: in vivo
Procedure: Each animal was humanely killed immediately after production of a convulsion by destruction of the brain from striking the cranium, followed by the confirmation of permanent cessation of the circulation from decapitation under The Humane Killing of Animals under Schedule 1 to the Animals (Scientific Procedures) Act 1986. Terminal blood and brain collection were performed following decapitation.
Blood was collected in Lithium-heparin tubes and centrifuged at 4 °C for 10 minutes at 1500× g. The resulting plasma was removed (>100 μL) and split into 2 aliquots of 0.5 mL Eppendorf tubes containing 10 μL of ascorbic acid (100 mg/mL) for stabilisation. Brains were removed, washed in saline and halved. Each half was placed into separate 2 mL screw cap cryovials, weighed and frozen on cardice.
Bioanalysis experiments were carried out to determine the quantitative measurement of Compound I and Compound II in plasma and brain.
Six mice were dosed with Compound I at 100 mg/kg and another six with Compound II at 150 mg/kg via intraperitoneal (i.p) injection. Sample analysis was performed 30 min post-dose using a sample volume of 40 μL. Following addition of internal standard (in acetonitrile) and Isopropanol samples were protein precipitated by addition of acetonitrile. Samples were centrifuged and supernatant transferred to a clean 96-well plate (with addition of Tween to minimise non-specific binding to plate materials), evaporated to dryness then reconstituted in suitable solvent. The extracts quantified by ultraperformance liquid chromatography-tandem mass spectrometry (UPLC-MS/MS).

[6] = read-out: Mean Plasma Conc., Location Brain
[7] = read-out: Plasma Conc., Location Brain (individual animal)
[8] = read-out: Plasma Conc. (individual animal)

SMILES | anticonvulsant effect in MES model [1] | anticonvulsant effect in PTZ model [3] | CC50 +/- SEM (current producing tonic hind limb extension in 50% of animals) [4] | Brain concentration [5] | Plasma Conc. (individual animal) [5] | Brain concentration at 30 min [5, 6] | Brain concentration at 30 min [5, 7] | concentration at 30 min ([5]; read-out: Mean Plasma Conc.) | concentration at 30 min [5, 8] | % change from vehicle (CC50) [4] | other results
C=C(C)[C@@H]1CCC(C)=C[C@H]1c1c(O)cc(CCCC)cc1O [CBD-C4, Cannabidiol-C4] | Therapeutic efficacy was shown | – | – | – | – | – | – | – | – | – | toxicology [2]: acceptable toxicology
C=C(C)[C@@H]1CCC(CO)=C[C@H]1c1c(O)cc(CCCCC)cc1O [Compound 7-OH-CBD, 7-hydroxy-cannabidiol] | anticonvulsant effects | anticonvulsant effects | – | – | – | – | – | – | – | – | effect in model of inflammation (inflammation): found to be effective
C=C(C)[C@@H]1CCC(CO)=C[C@H]1c1c(O)cc(CCC)cc1O [Compound 7-OH-CBDV, 7-hydroxy-cannabidivarin] | anticonvulsant effects | anticonvulsant effects | – | – | – | – | – | – | – | – | –
C=C(C)[C@@H]1CCC(CO)=C[C@H]1c1c(O)cc(CCCC)cc1O [Compound I, (1′R,2′R)-4-butyl-5′-(hydroxymethyl)-2′-(prop-1-en-2-yl)-1′,2′,3′,4′-tetrahydro-[1,1′-biphenyl]-2,6-diol] | – | – | >131 mA | 122.248 µM and 113.886 µM and 107.349 µM and 125.595 µM and 129.784 µM | 252.278 µM and 248.66 µM and 242.732 µM | 122 µM | 131 µM | 251 µM | 264 µM | – | occurrence of tonic hindlimb convulsions in treatment group ([4]; Compound I 100 mg/kg i.p., 30 min, 6 animals): did not have any convulsions
C=C(C)[C@@H]1CCC(C(=O)O)=C[C@H]1c1c(O)cc(CCCC)cc1O [Compound II, (1R,6R)-4′-butyl-2′,6′-dihydroxy-6-(prop-1-en-2-yl)-1,4,5,6-tetrahydro-[1,1′-biphenyl]-3-carboxylic acid] | – | – | <43 mA | 22.356 µM and 22.956 µM and 15.408 µM and 23.332 µM and 19.363 µM | 856.643 µM and 1008.984 µM and 1144.841 µM and 1209.706 µM and 1141.405 µM | 19.8 µM | 15.7 µM | 1050 µM | 960 µM | <72% | –
CN1C(=O)CN=C(c2ccccc2)c2cc(Cl)ccc21 [Diazepam, diazepam, reference compound] | – | – | – | – | – | – | – | – | – | 291% | –
